Experimental data taken from patent US10883994B2, “Identification of cancer stem cells markers and use of same for diagnosis and treatment” (Tel HaShomer Medical Research Infrastructure and Services …, priority 2014, dated 2021).
Entries after “also recorded” stand apart in the source; their conditions may differ.

Assays:
[1] = system: ATRT Xn cells (MRT cells); assay: MTS cell viability assay on MRT/ATRT Xn cells; type: cell-based, human; conditions: 100 μM BAPN, 48 h
Method: (§1) MTS—cell viability assay: 5×10^3 cells were plated in triplicates and grown in 96-well plates over-night. The following day the medium was changed and supplemented with various concentrations of BAPN and the cells were further incubated for 48 h. Cell proliferation was measured using CellTiter 96 Aqueous One Solution Cell Proliferation Assay (Promega) according to the manufacturer's instructions. Briefly, the cells were incubated with the MTS solution for 3 hours at 37° C. and absorbance at 492 nm was determined using a microplate reader. Three independent experiments were carried out.

[2] = system: Wilms' tumor (WT) Xn cells; assay: MTS cell viability assay on Wilms' tumor Xn cells; type: cell-based, human; conditions: Wilms' tumor Xn cells serially propagated in mice
Method: as §1

MRT cells (ATRT cells) [3] = assay: Morphology of MRT/ATRT cells after BAPN treatment; type: cell-based, human
MRT cells (ATRT cells) [4] = assay: Cell migration assay (scrape); type: cell-based, human; conditions: 100 μM BAPN, 48 h
Method: Cell migration assay: Cells were grown overnight, after which the medium was changed and supplemented with 100 μM BAPN. After 48 hours, a scrape was made through the confluent monolayers with a plastic 1 ml pipette tip. Treated and control cells were then photographed at identical time points (24 and 48 hours).

[5] = target: T1, LOX (lysyl oxidase) in ATRT cells (Homo sapiens, UniProt P28300); assay: LOX activity assay (Amplex Red fluorescence); type: biochemical; conditions: 100 μM BAPN
T1 construct: endogenous in cells
T1 sequence (P28300 169-417): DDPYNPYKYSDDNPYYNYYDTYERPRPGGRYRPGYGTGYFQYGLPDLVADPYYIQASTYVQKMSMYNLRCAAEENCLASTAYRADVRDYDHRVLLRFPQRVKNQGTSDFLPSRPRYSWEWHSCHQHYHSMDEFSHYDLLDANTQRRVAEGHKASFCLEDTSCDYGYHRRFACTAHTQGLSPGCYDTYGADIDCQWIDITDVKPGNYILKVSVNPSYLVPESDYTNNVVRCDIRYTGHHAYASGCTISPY
Method: LOX Activity Assays: The LOX enzyme activity was measured using the Amplex Red fluorescence assay (AAA Bioquest, 15255), as previously described (15843371). The assay reaction mixture consisted of 50 mM sodium borate (pH 8.2), 1.2 M urea, 50 µM Amplex Red, 0.1 units/ml horseradish peroxidase, and 10 mM 1,5-diaminopentane (cadaverine) substrate. The protein samples were added to the reaction mix, in the presence or absence of 100 μM BAPN, which was then incubated at 37° C. for 30 minutes. The fluorescent product was measured at 590 nm using an […] microplate reader.

[6] = intermediate Xn passage (P10) MRT cells

N#CCCN [BAPN, β-Aminopropionitrile]
proliferation in comparison to UT cells (MTS cell viability) ([1]; P2 Xn cells): 47% | proliferation (MTS cell viability) ([1]; intermediate Xn passage (P10) cells, three different experiments): significantly reduced proliferation | effect on WT cell proliferation [2]: no effect on WT cell proliferation | morphological changes on ATRT cells (MRT cells (ATRT cells) [3]; P2 cells): nuclear condensation and cell swallowing | morphological changes on MRT cells (MRT cells (ATRT cells) [3]; [6]): nuclear condensation and cell swallowing | ATRT cell migration capacity compared to un-treated cells (MRT cells (ATRT cells) [4]; P2 cells): significant inhibited | MRT cell migration capacity compared to un-treated cells (MRT cells (ATRT cells) [4]; [6]): significant inhibited; also recorded: significantly inhibited | LOX activity (in words) [5]: significantly inhibited LOX activity | inhibition of LOX activity ([5]; P3 cells): 81% | inhibition of LOX activity ([5]; P10 cells): 63%
